From patent publication US20060240505A1, “Identification of Targets of Antimicrobial Compounds” (priority 2000, published 2006)
In brackets after ≈: the same amount, converted by molar mass. Like-named read-outs stand apart in the source and are kept apart here.

What was measured:
[1] = system: RN4220/pYH4; test: MIC against S. aureus RN4220 carrying empty expression vector pYH4 (control), with and without inducer; format: cell-based
Description: (§1) The pYH4 expression vector was used to clone the FabI ORF and it served as a control for the experiment.
(§2) The murA1 ORF is cloned into the pYH4 expression vector, the features of which are described above, and the anhydrotetracycline inducer is added to a sample containing the murA1 ORF. In addition, a control sample containing only the vector is induced and the MICs of the induced and uninduced vector are determined. […] This confirms that murA1 is a target of phosphomycin.
as §2, with “metRS” for “murA1”, “ORF. The MICs for the anitmicrobial compound of induced and uninduced samples are determined.” for “ORF.”, “the exemplified antimicrobial compound.” for “phosphomycin.”

[2] = system: RN4220/pYH4MurA1; test: MIC of phosphomycin against S. aureus RN4220 carrying the murA1 ORF clone, with and without inducer; format: cell-based
Description: as §2

[3] = system: RN4220/pYH4-fabI; test: MIC of triclosan against S. aureus RN4220 carrying the fabI ORF clone, with and without inducer; format: cell-based; settings: Staphylococcus aureus, strain RN4220/pYH4-fabI, read-out: MIC concentration of triclosan necessary to inhibit the strain
Source text: This confirms that FabI is a target of triclosan.
as §1

[4] = system: RN4220/pYH4 and RN4220/pYH4-fabI mixed in the ratio of 100:1; test: Selection of triclosan resistant colonies on TSA plates from a mixed culture; format: cell-based, S. aureus; settings: approximately 1,000 bacterial cells plated
Description: In the experiment, a S. aureus strain with expression vector (RN4220/pYH4) was combined with the expression vector and FabI open reading frame (RN4220/pYH4-fabI) in the ratio of 100:1. Then, approximately 1,000 bacterial cells of this mixture were plated onto TSA plates containing: (1) no triclosan (-triclosan); (2) 0.25 μg/ml of triclosan; and (3) 0.25 μg/ml of triclosan plus 0.4 μg/ml anhydrotetracycline inducer. […] The third plate was indicative of FabI-containing clones which are confirmed to be targets of the triclosan antimicrobial compound.

**Q.** How did the MIC of phosphomycin ([1]; strain RN4220/pYH4, +ATc) turn out when `C[C@@H]1O[C@@H]1P(=O)(O)O` [phosphomycin] was run?
**A.** The MIC of phosphomycin was 2 µg/mL.

**Q.** And the MIC of phosphomycin ([1]; strain RN4220/pYH4, −Atc)?
**A.** The MIC of phosphomycin was 4 µg/mL.

**Q.** And the “MIC of the induced murA1 gene relative to the uninduced vector alone” value ([2]; induced murA1 clone vs uninduced vector)?
**A.** Its value is 64 fold.

**Q.** And the MIC of phosphomycin ([2]; strain RN4220/pYH4MurA1, +ATc)?
**A.** The MIC of phosphomycin was 256 µg/mL.

**Q.** And the MIC of phosphomycin ([2]; strain RN4220/pYH4MurA1, −Atc)?
**A.** Its MIC of phosphomycin is 32 µg/mL.

**Q.** What about the “MIC of the uninduced murA1 gene relative to the uninduced vector alone” value ([2]; uninduced murA1 clone vs uninduced vector) of the same compound?
**A.** Its value is 8 fold.

**Q.** What does the source list for `Oc1cc(Cl)ccc1Oc1ccc(Cl)cc1Cl` [triclosan]?
**A.** MIC ([1]; Staphylococcus aureus, strain RN4220/pYH4, −inducer, read-out: MIC concentration of triclosan necessary to inhibit the strain): 0.0625 µg/mL (≈ 0.216 µM); MIC concentration of triclosan necessary to inhibit the strain ([1]; strain RN4220/pYH4, +inducer): 0.0625 µg/mL; MIC ([3]; +inducer): 1 µg/mL; MIC ([3]; −inducer): 0.0625 µg/mL; colonies grown on TSA plate ([4]; 0.25 μg/ml triclosan plus 0.4 μg/ml anhydrotetracycline inducer): 15 colonies; colonies grown on TSA plate ([4]; 0.25 μg/ml triclosan, no inducer): no colonies grew
